# Results taken from PubChem BioAssay (NCI).
#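 Where inhibition never reached the appropriate level, the endpoint shown equals the highest concentration tested. Otherwise, values were interpolated linearly from a five-concentration, 48-hour dose response in 96-well plates. At the GI50, growth is halved. At the TGI there is no net growth.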
# Assays:
# Assay in all cases: NCI tumour cell line growth inhibition, 48 h
# [1] = system: SNB-75 CNS
# [2] = system: EKVX NSCLC
# [3] = system: NCI-H460 lung
# [4] = system: T-47D breast
# [5] = system: SK-MEL-5 melanoma
# [6] = system: 786-0 renal
# [7] = system: SK-OV-3 ovarian
# [8] = system: HS 578T breast
# [9] = system: HT29 colon
# [10] = system: MALME-3M melanoma
SMILES,GI50 [1],TGI [1],GI50 [2],TGI [2],GI50 [3],TGI [3],GI50 [4],TGI [4],GI50 [5],TGI [5],GI50 [6],TGI [6],GI50 [7],TGI [7],GI50 [8],TGI [8],GI50 [9],TGI [9],TGI [10],GI50 [10]
COc1ccc(/C=c2/sc3n(c2=O)C(c2ccc(OC)c(OC)c2)C2=C(N=3)c3cc(F)ccc3OC2)cc1 (configuration not stated),16.1 µM,98.2 µM,39.7 µM,> 100 µM,19.3 µM,> 100 µM,4.42 µM,39.6 µM,22.3 µM,> 62.4 µM,42.1 µM,> 100 µM,> 57 µM,> 100 µM,27 µM,> 87.5 µM,16.2 µM,> 100 µM,–,–
c1ccc2c3ccn4cc5c(cc4c-3nc2c1)CCCC5,3.12 µM,12.3 µM,3.88 µM,19.5 µM,1.69 µM,3.85 µM,3.27 µM,15 µM,2.42 µM,10.3 µM,3.46 µM,13.5 µM,3.41 µM,10.5 µM,3.01 µM,21.5 µM,2.55 µM,13 µM,–,–
O=C1CSC(Cc2nc3ccccc3[nH]2)=N1,–,27.4 µM,–,75.6 µM,–,–,–,–,–,26.6 µM,–,32.6 µM,–,51.3 µM,–,–,–,> 100 µM,18.4 µM,–
COc1ccccc1NC(=O)C1=C(C)NC(C)=C(C(=O)Nc2ccccc2OC)C1c1ccc([N+](=O)[O-])cc1,–,> 100 µM,–,> 100 µM,–,> 100 µM,–,–,–,> 100 µM,–,> 100 µM,–,> 100 µM,–,–,–,> 100 µM,> 100 µM,–
O=S(O)CCCCSSCc1ccccc1CSSCCCCS(=O)O,–,> 100 µM,–,> 100 µM,–,> 100 µM,–,–,–,23.2 µM,–,> 100 µM,–,> 100 µM,–,–,–,20.6 µM,28.5 µM,–
CCCCCCCCCc1cc(=O)c2c(O)cccc2o1,–,> 10 µM,–,> 100 µM,–,> 100 µM,–,–,–,46.6 µM,–,> 100 µM,–,> 100 µM,–,–,–,> 10 µM,> 100 µM,–
Cc1cn2c(/C=C3/C(=O)Nc4ccccc43)c(-c3ccc(Cl)cc3)nc2s1,–,–,8.73 µM,18.8 µM,8.14 µM,22.1 µM,–,–,9.06 µM,16 µM,7.08 µM,13.6 µM,–,–,9.26 µM,31.9 µM,9.23 µM,16.2 µM,–,–
O=C(CCC/C(CC(=O)c1ccc(Br)cc1)=N\O)Nc1ccccc1,–,> 100 µM,–,> 100 µM,–,> 100 µM,–,–,–,> 100 µM,–,> 100 µM,–,–,–,–,–,> 100 µM,> 100 µM,–
O=C(Nc1ccc([N+](=O)[O-])cc1)C1C(=O)C(=O)N(c2ccc([N+](=O)[O-])cc2)C1=O (configuration not stated),–,> 100 µM,–,> 100 µM,–,> 100 µM,–,–,–,> 100 µM,–,> 100 µM,–,> 100 µM,–,–,–,> 100 µM,> 100 µM,–
CCOC(=O)C1N(S(=O)(=O)c2ccc(C)cc2)CCC12C(c1ccc(OC)cc1)NC1CCCCC12 (configuration not stated),–,77.8 µM,–,> 100 µM,–,> 100 µM,–,–,–,> 100 µM,–,> 100 µM,–,> 100 µM,–,–,–,> 100 µM,> 100 µM,–
CCOC(=O)CCc1c(C)c2c(OC(C)=O)cc(OC(C)=O)cc2oc1=O,–,> 100 µM,–,> 100 µM,–,91.1 µM,–,–,–,–,–,> 100 µM,–,–,–,–,–,> 100 µM,55.5 µM,–
NC1CCCC[C@H]1N.N[C@@H]1CCCC[C@@H]1N.O=C(P(=O)([O-])[O-])P(=O)([O-])[O-].[Pt+4].[Pt+4],> 100 µM,> 100 µM,> 100 µM,> 100 µM,20 µM,> 100 µM,–,–,> 100 µM,> 100 µM,> 100 µM,> 100 µM,> 100 µM,> 100 µM,–,–,70.9 µM,> 100 µM,> 100 µM,> 100 µM
CCOC(=O)[C@H](CCCNC(=O)OC(C)(C)C)NCc1ccc(OC)c(OC)c1,–,> 100 µM,–,> 100 µM,–,–,–,–,–,> 100 µM,–,> 100 µM,–,> 100 µM,–,–,–,> 100 µM,> 100 µM,–
Cc1cccc(NC(=O)/C=C/c2ccc(N(CCC#N)CCC#N)cc2C)c1,–,> 100 µM,–,> 100 µM,–,> 100 µM,–,–,–,> 100 µM,–,> 100 µM,–,> 100 µM,–,–,–,> 100 µM,> 100 µM,–
Nc1nc(Nc2ccccc2)c2ncn(Cc3cc4c(cc3Br)OCO4)c2n1,0.0623 µM,25.3 µM,< 0.0276 µM,> 100 µM,0.0304 µM,17.6 µM,< 0.01 µM,21.4 µM,0.0485 µM,0.278 µM,0.0659 µM,16.2 µM,0.0373 µM,2.36 µM,0.075 µM,> 94.9 µM,0.0484 µM,0.706 µM,–,–
O=C(CSc1nnc(-c2ccccc2NC(=O)C(F)(F)F)c(=O)[nH]1)NC(=O)Nc1ccccc1,–,45 µM,–,> 100 µM,–,> 100 µM,–,–,–,–,–,> 100 µM,–,> 100 µM,–,–,–,> 100 µM,> 100 µM,–
O=C(CCCN1CC=C(n2c(=O)[nH]c3ccccc32)CC1)c1ccc(F)cc1,–,–,16.7 µM,80.1 µM,35.2 µM,> 100 µM,19.7 µM,73.6 µM,14.9 µM,28.6 µM,29.3 µM,> 100 µM,> 100 µM,> 100 µM,24 µM,99.8 µM,27.6 µM,> 100 µM,> 100 µM,38.9 µM
CCOC(=O)c1[nH]c(COC(C)=O)c(CCCOC(C)=O)c1CCCOC(C)=O,–,–,–,> 100 µM,–,> 100 µM,–,–,–,–,–,> 100 µM,–,> 100 µM,–,–,–,> 100 µM,> 100 µM,–
O=C(CN1CCCCC1)N1CCc2c([nH]c3ccccc23)C1c1cccnc1 (configuration not stated),–,> 100 µM,–,> 100 µM,–,> 100 µM,–,–,–,> 100 µM,–,> 100 µM,–,> 100 µM,–,–,–,> 100 µM,–,–
COc1ccc(C2C(C#N)=C(N)OC3=C2COc2ccc(F)cc23)cc1OC (configuration not stated),–,–,17.8 µM,> 100 µM,40 µM,> 100 µM,–,–,12.9 µM,44.9 µM,25.6 µM,> 100 µM,37.3 µM,> 100 µM,35.6 µM,81.7 µM,–,–,–,–
